Results published in US8410066B2, “Heterobifunctional inhibitors of E-selectins and CXCR4 chemokine receptors” (GlycoMimetics, Inc., priority 2009, dated 2013).
Each block holds one compound with its values, some of them ahead of it.

Legend:
[1] = target: T1, CXCR4 on the surface of SupT1 cells (Homo sapiens, UniProt P61073); test: Inhibition of binding of anti-CXCR4-PE antibody to CXCR4 on SupT1 cells (flow cytometry); details: for % positive / Mean fluorescence intensity / Median fluorescence intensity: anti-CXCR4-PE
T1 construct: constitutively express CXCR4 on the cell surface; host or cells: SupT1 cells
T1 sequence (P61073 whole entry): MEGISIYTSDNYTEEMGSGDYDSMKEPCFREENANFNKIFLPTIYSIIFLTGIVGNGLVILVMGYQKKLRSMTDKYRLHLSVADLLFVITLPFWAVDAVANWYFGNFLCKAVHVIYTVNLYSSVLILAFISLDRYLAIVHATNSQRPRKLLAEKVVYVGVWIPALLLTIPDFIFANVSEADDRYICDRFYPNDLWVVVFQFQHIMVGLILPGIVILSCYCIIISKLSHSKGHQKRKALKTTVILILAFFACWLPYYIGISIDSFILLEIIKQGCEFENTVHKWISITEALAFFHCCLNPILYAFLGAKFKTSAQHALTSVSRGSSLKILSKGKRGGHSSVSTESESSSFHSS
Text: The assay assesses the ability of glycomimetic compounds to inhibit binding of an anti-CXCR4 antibody conjugated to phycoerythrin (“PE”), to CXCR4 on the surface of SupT1 cells. SupT1 cells are a T lymphoblast derived from a lymphoblastic leukemia and constitutively express CXCR4 on the cell surface. The cells are purchased from ATCC (ATCC number CRL-1942). Anti-human CXCR4-phycoerythrin monoclonal antibody (anti-CXCR4-PE) is purchased from R&D Systems (catalog number FAB170P, clone 12G5). The cells are grown in RPMI 1640 medium supplemented with 10% FBS. Approximately 2×10^6 cells are washed three times by centrifuging the cells at 400×g for 10 minutes and the cell pellet is resuspended in PBS plus 0.05% BSA. After the third centrifugation, the cell pellet is resuspended in PBS plus BSA to a concentration of 5×10^5 cells per ml. To block non-specific binding, human […] is added to the cells to a concentration of 1 μg per 10^5 cells. Next, 200 μl (1×10^5 cells) are added to 5 ml polypropylene round-bottom tubes (Falcon 2063 tubes). Compound #1 (Example 1) (lot 31-190) is added to the cells at final concentrations of 0.5, 5, 10, and 50 μM. To achieve a final concentration of 0.5 μM, 2.2 μl of 50 μM Compound #1 plus 19.8 μl of PBS/BSA are added to 200 μl of cells. To achieve a final concentration of 5 μM, 22 μl of 50 μM Compound #1 are added to 200 μl of cells. To achieve a final concentration of 10 μM, 4.4 μl of 500 μM Compound #1 plus 17.6 μl of PBS/BSA are added to 200 μl of cells. To achieve a final concentration of 50 μM, 22 μl of 500 μM Compound #1 are added to 200 μl of cells. Other aliquots of cells are treated with either 1 or 5 μM of the bicyclam CXCR4 antagonist AMD-3100 (Sigma Aldrich, catalog #A5602). To achieve a final concentration of 1 μM AMD-3100, 4.4 μl of 50 μM AMD-3100 plus 17.6 μl of PBS/BSA are added to 200 μl of cells and to achieve a final concentration of 5 μM, 22 μl of 50 μM AMD-3100 are added to 200 μl of cells. In addition, one tube of cells is treated with 1 μg/ml of SDF-1α (R&D Systems catalog #350-NS), the natural ligand of CXCR4. The tubes are placed at 4° C. for 15 minutes. Subsequently, each tube receives 10 μl of anti-CXCR4-PE, except one tube of cells receives 10 μl of mouse IgG 2A isotype control antibody. The tubes are incubated at 4° C. for 45 minutes. The cells are washed twice with PBS plus 0.05% BSA and the final cell pellet is resuspended in 100 μl of PBS/BSA. To fix the samples, 100 μl of 2% formaldehyde (Polysciences, Inc. ultrapure EM grade, catalog number 04018) are added to each tube. Flow cytometry is performed using a Cytomation MoFlo instrument.

E-selectin/Ig chimera = test: E-selectin competitive binding assay (sLe^a polyacrylamide conjugate); details: FIGS. 4 and 5
Procedure: The inhibition assay to screen glycomimetic antagonists of E-selectin is a competitive binding assay, which allows the determination of IC50 values. Briefly, E-selectin/Ig chimera is immobilized by incubation at 37° C. in 96 well microtiter plates for 2 hours. To reduce nonspecific binding, bovine serum albumin is added to each well and incubated at room temperature for 2 hours. The plate is washed and serial dilutions of the test compounds are added to the wells in the presence of conjugates of biotinylated, sLe^a polyacrylamide with streptavidin/horseradishperoxidase and incubated for 2 hours at room temperature. To determine the amount of sLe^a bound to immobilized E-selectin after washing, the peroxidase substrate, 3,3′,5,5′ tetramethylbenzidin (TMB) is added. After 3 minutes, the enzyme reaction is stopped by the addition of H3PO4 and the absorbance of light at a wavelength of 450 nm is determined. The concentration of test compound required to inhibit binding by 50% is determined and reported as the IC50 value for each glycomimetic E-selectin antagonist. In addition to reporting the absolute IC50 value as measured above, relative IC50 values are determined by a ratio of the IC50 measured for the test compound to that of an internal control (reference) stated for each assay.

% positive ([1]; 1 μM inhibitor): 57.57%
Mean fluorescence intensity ([1]; 1 μM inhibitor): 15.60
Median fluorescence intensity ([1]; 1 μM inhibitor): 7.77
% positive ([1]; 5 μM inhibitor): 12.42%
Mean fluorescence intensity ([1]; 5 μM inhibitor): 9.98
Median fluorescence intensity ([1]; 5 μM inhibitor): 3.92
Compound: c1cc(CN2CCCNCCNCCCNCC2)ccc1CN1CCCNCCNCCCNCC1 [AMD-3100, reference compound]

% positive ([1]; 0.5 μM inhibitor): 98.69%
Mean fluorescence intensity ([1]; 0.5 μM inhibitor): 68.49
Median fluorescence intensity ([1]; 0.5 μM inhibitor): 54.25
% positive ([1]; 5 μM inhibitor): 81.48%
Mean fluorescence intensity ([1]; 5 μM inhibitor): 22.25
Median fluorescence intensity ([1]; 5 μM inhibitor): 13.34
% positive ([1]; 10 μM inhibitor): 42.06%
Mean fluorescence intensity ([1]; 10 μM inhibitor): 14.08
Median fluorescence intensity ([1]; 10 μM inhibitor): 6.04
% positive ([1]; 50 μM inhibitor): 12.80%
Mean fluorescence intensity ([1]; 50 μM inhibitor): 11.08
Median fluorescence intensity ([1]; 50 μM inhibitor): 3.92
IC50 ([1]; anti-CXCR4-PE clone 12G5, 4° C.): 8.25 µM
E-selectin antagonist activity (in words) (E-selectin/Ig chimera): potent E-selectin antagonist
Compound: CC1CC(C(=O)NCCNCc2ccc(CN3CCCNCCNCCCNCC3)cc2)CC(OC2OC(CO)C(O)C(O[C@@H](CC3CCCCC3)C(=O)O)C2OC(=O)c2ccccc2)C1OC1OC(C)C(O)C(O)C1O (stereo partly shown) [Compound #1]
Inhibition of binding of anti-CXCR4-PE antibody to CXCR4 (in words) [1]: inhibits binding of anti-CXCR4-PE to SupT1 cells in a dose-dependent manner

Inhibition of binding of anti-CXCR4-PE antibody to CXCR4 (in words) [1]: efficiently inhibits binding
% positive ([1]; 1 μg/ml inhibitor): 12.37%
Mean fluorescence intensity ([1]; 1 μg/ml inhibitor): 10.25
Median fluorescence intensity ([1]; 1 μg/ml inhibitor): 4.07
Compound: SDF-1α
